Measured values from patent publication US10683553B2, “Method for determining sensitivity to simultaneous inhibitor against PARP and Tankyrase” (THE ASAN FOUNDATION, priority 2015, dated 2020).

Columns and labels:
Assay in all cases: Trypan blue staining apoptosis assay
Assay type in all cases: cell-based
[1] = system: RKO human colon cancer cell line; details: RKO (p53 WT/LIG4 MT); 25 μM and 50 μM, 48 hours
Text: (§1) In order to analyze the degree of apoptosis of Compound A, which is a novel PARP/Tankyrase simultaneous inhibitor according to a p53 genotype and LIG4 genotype, the present inventors treated a novel PARP/Tankyrase simultaneous inhibitor, Compound A, and a competitive drug PARP inhibitor, olaparib, in RKO, LoVo human colon cancer cell line in which the p53 gene is a normal type and the LIG4 gene is a mutant type and an SW620 human colon cancer cell line in which the p53 gene is a mutant type and the LIG4 gene is a normal type. The number of cells was measured by trypan blue staining assay to confirm the degree of apoptosis. The conditions and methods of the experiment were as follows: RKO, LoVo human colon cancer cell line in which the p53 gene is a normal type and the LIG4 gene is a mutant type and the SW620 human colon cancer cell line in which the p53 gene is a mutant type and the LIG4 gene is a normal type were cultured in RPMI1640 (10% FBS, 1% penicillin/streptomycin) and cultured in a 60 mm plate at 1×10^5 per well for 24 hours at 37° C. Compound A, which is a novel PARP/Tankyrase simultaneous inhibitor, and olaparib, which is a competitive drug PARP inhibitor, were treated with each of 25 μM and 50 μM and were cultured for 48 hours. The number of cells was measured by trypan blue staining assay to confirm the degree of apoptosis.
In order to analyze the degree of apoptosis of Compound A, which is a novel PARP/Tankyrase simultaneous inhibitor, according to the p53 genotype and an LIG4 genotype, the present inventors treated Compounds A and B, which are novel PARP/Tankyrase simultaneous inhibitors, in the RKO and LoVo human colon cancer cell lines in which the p53 gene is a normal type and an LIG4 gene is a mutant type. Then, the number of cells was measured by trypan blue staining assay to confirm the degree of apoptosis. The RKO and LoVo human colon cancer cell lines were cultured under the same conditions as in Example 5. Compounds A and B, which are novel PARP/Tankyrase simultaneous inhibitors, were treated with 25 μM and 50 μM, respectively, for 48 hours. After 48 hours of culturing, the number of cells was measured by trypan blue staining assay to confirm the degree of apoptosis. […]

[2] = system: SW620 human colon cancer cell line; details: SW620 (p53 MT/LIG4 WT); 25 μM and 50 μM, 48 hours
Text: as §1
(§2) In order to analyze the degree of apoptosis of Compounds A and B, which are novel PARP/Tankyrase simultaneous inhibitors, in a cell line RKO in which the p53 genotype is a normal type and an LIG4 genotype is a mutant type, a cell line SW620 in which the p53 genotype is a mutant type and an LIG4 genotype is a normal type, a cell line HCT8 in which the p53 genotype and an LIG4 genotype are normal, and a cell line KM12C in which the p53 genotype and an LIG4 genotype are mutant, the human colon cancer cell lines of RKO, HCT, SW620 and KM12C with different p53 genotype and LIG4 genotype were cultured in RPMI1640 (10% FBS, 1% penicillin/streptomycin) and cultured in a 60 mm plate at 1×10^5 per well for 24 hours at 37° C. Compounds A and B, which are novel PARP/Tankyrase simultaneous inhibitors, and olaparib, which is a competitive drug PARP inhibitor, and NVP-TNKS656, which is a Tankyrase inhibitor, were treated with each of 25 μM and 50 μM. After 48 hours of culturing, the number of cells was measured by trypan blue staining assay to confirm the degree of apoptosis.

[3] = system: HCT8 human colon cancer cell line; details: HCT8 (p53 WT/LIG4 WT); 25 μM and 50 μM, 48 hours
Text: as §2

[4] = system: KM12C human colon cancer cell line; details: KM12C (p53 MT/LIG4 MT); 25 μM and 50 μM, 48 hours
Text: as §2

**Q.** For `COc1ccc(C(=O)C2CCN(CC(=O)N(Cc3nc4c(c(=O)[nH]3)COCC4)CC3CC3)CC2)cc1` [NVP-TNKS656, reference compound], which “degree of apoptosis (trypan blue cell count)” value (shortened to “degree of apoptosis”) [1] is on record?
**A.** Its value is “no change in apoptosis”.

**Q.** And the “degree of apoptosis” value [2]?
**A.** The value was “No apoptosis occurred”.

**Q.** And the “degree of apoptosis” value [3]?
**A.** The value was “No apoptosis occurred”.

**Q.** And the “degree of apoptosis” value [4]?
**A.** The value was “No apoptosis occurred”.
